Active and inactive are the calls of the source.
What was measured:
[1] = target: Serine/threonine-protein kinase B-raf (Homo sapiens, UniProt P15056)
[2] = target: Cyclin-dependent kinase 12 (Homo sapiens, UniProt Q9NYV4)
[3] = target: T1, ATP-dependent RNA helicase DDX42 (Homo sapiens, UniProt Q86XP3)
T1 sequence (Q86XP3 whole entry): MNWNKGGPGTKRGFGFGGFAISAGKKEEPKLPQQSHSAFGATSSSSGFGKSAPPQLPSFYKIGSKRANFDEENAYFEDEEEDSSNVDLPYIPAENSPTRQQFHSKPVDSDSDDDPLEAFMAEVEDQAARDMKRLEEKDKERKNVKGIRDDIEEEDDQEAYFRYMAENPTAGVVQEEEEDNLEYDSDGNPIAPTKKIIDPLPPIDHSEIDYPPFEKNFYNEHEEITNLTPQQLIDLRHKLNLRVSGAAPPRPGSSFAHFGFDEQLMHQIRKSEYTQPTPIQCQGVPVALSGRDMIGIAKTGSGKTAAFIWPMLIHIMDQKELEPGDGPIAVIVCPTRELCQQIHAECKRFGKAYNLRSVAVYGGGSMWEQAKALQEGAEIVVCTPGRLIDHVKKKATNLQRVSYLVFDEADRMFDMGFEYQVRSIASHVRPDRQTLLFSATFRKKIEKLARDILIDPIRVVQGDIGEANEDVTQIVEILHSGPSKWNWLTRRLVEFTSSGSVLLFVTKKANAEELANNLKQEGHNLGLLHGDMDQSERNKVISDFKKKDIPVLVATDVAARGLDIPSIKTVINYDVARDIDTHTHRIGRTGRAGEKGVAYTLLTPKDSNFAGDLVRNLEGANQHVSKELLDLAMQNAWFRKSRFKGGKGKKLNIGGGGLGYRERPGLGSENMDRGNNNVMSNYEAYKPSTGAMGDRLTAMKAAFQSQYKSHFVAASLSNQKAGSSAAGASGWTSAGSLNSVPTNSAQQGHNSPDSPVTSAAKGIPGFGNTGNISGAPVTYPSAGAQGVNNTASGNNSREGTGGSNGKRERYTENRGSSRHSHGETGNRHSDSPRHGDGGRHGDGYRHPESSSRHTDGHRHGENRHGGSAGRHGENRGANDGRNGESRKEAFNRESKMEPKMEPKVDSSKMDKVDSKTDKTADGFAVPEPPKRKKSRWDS

[4] = target: T2, Serine/threonine-protein kinase Nek3 (Homo sapiens, UniProt P51956)
T2 sequence (P51956 whole entry): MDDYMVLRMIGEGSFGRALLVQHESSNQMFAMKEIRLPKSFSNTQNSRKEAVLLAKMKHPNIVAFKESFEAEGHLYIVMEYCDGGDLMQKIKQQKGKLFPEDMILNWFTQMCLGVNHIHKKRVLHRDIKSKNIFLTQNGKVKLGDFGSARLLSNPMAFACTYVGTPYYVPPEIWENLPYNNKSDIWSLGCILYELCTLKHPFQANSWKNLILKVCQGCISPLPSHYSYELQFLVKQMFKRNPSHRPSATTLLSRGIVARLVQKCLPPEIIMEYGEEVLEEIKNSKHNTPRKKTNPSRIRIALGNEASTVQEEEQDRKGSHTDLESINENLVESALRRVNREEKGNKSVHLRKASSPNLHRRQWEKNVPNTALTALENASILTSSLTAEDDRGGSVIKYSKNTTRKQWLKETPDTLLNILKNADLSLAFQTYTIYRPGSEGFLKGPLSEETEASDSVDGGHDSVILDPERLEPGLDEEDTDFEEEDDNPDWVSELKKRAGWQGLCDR

[5] = target: T3, cGMP-dependent protein kinase 1 (Homo sapiens, UniProt Q13976)
T3 sequence (Q13976 whole entry): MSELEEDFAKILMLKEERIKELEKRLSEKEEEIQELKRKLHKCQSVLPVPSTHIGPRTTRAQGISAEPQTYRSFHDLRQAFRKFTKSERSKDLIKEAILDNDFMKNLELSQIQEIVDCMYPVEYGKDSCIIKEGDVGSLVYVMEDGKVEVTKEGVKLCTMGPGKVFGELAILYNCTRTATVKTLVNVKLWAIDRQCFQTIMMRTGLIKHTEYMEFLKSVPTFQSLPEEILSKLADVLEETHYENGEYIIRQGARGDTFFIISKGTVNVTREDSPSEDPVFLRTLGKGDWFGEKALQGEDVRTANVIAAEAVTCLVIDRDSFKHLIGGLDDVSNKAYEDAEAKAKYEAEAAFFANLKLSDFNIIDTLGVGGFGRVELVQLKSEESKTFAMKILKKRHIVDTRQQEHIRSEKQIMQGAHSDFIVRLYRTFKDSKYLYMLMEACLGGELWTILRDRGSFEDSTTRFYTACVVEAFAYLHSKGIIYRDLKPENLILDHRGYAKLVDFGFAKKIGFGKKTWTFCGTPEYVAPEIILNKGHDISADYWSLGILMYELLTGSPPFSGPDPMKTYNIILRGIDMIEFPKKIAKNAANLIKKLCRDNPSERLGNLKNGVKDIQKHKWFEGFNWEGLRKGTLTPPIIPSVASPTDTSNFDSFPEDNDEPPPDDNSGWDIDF

[6] = target: T4, Glycogen phosphorylase, brain form (Homo sapiens, UniProt P11216)
T4 sequence (P11216 whole entry): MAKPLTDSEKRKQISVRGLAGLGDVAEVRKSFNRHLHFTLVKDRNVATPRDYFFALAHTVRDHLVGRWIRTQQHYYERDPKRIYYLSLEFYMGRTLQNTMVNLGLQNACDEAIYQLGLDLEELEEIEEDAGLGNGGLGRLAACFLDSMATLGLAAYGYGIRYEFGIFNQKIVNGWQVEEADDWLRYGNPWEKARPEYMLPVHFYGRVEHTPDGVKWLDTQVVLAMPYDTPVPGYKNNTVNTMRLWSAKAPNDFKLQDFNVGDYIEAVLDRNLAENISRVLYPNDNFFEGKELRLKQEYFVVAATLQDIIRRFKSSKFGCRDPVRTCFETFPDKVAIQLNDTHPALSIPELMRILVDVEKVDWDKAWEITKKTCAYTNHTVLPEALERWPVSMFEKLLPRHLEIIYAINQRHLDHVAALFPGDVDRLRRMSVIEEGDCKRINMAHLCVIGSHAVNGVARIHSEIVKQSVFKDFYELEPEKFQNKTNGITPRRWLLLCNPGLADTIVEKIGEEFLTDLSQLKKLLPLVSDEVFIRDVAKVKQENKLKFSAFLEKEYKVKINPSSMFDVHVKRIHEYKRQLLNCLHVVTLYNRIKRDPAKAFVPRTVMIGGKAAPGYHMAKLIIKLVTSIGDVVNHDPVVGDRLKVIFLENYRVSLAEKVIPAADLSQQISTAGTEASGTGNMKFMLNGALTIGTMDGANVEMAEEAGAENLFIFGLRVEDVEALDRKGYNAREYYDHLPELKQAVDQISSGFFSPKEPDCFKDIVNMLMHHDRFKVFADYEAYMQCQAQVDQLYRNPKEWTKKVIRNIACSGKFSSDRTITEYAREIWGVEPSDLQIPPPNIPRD
Further: in the data inactive means no Kd found up to 30 µM.

Chain of Serine/threonine-protein kinase B-raf (P15056 whole entry): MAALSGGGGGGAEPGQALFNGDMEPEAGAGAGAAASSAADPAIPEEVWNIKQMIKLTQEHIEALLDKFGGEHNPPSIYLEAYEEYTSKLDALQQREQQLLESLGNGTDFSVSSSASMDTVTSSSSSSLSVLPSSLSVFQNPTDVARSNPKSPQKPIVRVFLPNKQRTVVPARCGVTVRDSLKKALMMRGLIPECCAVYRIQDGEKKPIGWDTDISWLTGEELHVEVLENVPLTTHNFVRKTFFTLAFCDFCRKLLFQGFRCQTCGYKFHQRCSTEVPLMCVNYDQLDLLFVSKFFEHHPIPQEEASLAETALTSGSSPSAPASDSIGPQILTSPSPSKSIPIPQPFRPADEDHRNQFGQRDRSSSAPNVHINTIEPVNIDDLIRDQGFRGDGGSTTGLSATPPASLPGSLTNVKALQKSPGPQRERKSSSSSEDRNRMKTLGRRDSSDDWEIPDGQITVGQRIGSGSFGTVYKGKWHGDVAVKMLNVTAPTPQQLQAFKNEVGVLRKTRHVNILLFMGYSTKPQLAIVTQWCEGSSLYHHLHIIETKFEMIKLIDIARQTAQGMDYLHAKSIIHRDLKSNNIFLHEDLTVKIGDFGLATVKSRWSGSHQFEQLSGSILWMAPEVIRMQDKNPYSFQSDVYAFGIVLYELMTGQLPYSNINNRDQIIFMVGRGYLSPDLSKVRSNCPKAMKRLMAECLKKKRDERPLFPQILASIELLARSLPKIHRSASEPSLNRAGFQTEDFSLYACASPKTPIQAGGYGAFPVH
Chain of Cyclin-dependent kinase 12 (Q9NYV4 whole entry): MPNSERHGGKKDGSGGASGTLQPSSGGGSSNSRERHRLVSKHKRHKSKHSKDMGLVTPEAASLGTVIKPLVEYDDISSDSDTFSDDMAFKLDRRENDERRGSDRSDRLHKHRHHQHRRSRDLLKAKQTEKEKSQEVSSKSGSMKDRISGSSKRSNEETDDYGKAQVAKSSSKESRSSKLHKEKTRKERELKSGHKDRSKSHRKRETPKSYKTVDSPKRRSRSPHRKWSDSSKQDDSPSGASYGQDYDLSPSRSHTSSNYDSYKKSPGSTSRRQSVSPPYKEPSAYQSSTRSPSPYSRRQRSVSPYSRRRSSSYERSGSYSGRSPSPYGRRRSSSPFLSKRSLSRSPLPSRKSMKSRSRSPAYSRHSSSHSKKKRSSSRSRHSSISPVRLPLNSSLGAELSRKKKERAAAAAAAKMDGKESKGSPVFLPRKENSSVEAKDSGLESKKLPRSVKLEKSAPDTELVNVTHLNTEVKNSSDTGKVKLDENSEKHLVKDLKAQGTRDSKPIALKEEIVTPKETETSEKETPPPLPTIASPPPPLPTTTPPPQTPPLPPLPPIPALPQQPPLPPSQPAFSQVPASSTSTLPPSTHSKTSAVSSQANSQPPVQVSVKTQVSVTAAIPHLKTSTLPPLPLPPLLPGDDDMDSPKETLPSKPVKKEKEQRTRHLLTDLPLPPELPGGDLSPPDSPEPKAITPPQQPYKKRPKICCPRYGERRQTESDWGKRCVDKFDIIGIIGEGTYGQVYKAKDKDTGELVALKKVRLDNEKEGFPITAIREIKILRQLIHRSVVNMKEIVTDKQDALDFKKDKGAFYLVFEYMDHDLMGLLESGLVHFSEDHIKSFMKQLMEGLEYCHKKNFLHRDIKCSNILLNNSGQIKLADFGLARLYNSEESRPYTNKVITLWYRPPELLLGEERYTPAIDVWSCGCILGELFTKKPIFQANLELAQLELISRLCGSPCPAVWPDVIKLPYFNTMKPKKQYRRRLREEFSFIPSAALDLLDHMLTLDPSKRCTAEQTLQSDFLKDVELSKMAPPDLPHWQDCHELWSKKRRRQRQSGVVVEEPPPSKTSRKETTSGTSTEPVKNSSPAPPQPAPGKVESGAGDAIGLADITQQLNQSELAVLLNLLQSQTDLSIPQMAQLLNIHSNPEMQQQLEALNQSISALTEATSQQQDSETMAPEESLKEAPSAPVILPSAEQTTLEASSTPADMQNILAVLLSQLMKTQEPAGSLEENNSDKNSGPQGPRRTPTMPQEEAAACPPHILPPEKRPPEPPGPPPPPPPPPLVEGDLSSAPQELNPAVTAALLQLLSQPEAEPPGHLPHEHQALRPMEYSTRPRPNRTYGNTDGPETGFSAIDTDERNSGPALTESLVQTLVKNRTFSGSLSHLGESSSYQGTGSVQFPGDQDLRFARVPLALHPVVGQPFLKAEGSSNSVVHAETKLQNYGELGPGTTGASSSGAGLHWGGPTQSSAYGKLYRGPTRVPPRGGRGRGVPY

Kd [1] | Kd [2] | Kd [3] | Kd [4] | Kd [5] | Kd [6] | Structure (SMILES)
> 30 µM (inactive) | > 30 µM (inactive) | > 30 µM (inactive) | > 30 µM (inactive) | > 30 µM (inactive) | > 30 µM (inactive) | CCN(CCCOc1ccc2c(Nc3cc(CC(=O)Nc4cccc(F)c4)n[nH]3)ncnc2c1)CCOP(=O)(O)O [BARASERTIB]
> 30 µM (inactive) | > 30 µM (inactive) | > 30 µM (inactive) | > 30 µM (inactive) | > 30 µM (inactive) | > 30 µM (inactive) | COc1cc2ncnc(Nc3ccc(F)c(Cl)c3)c2cc1NC(=O)/C=C/CN1CCCCC1 [DACOMITINIB ANHYDROUS]
> 30 µM (inactive) | > 30 µM (inactive) | > 30 µM (inactive) | > 30 µM (inactive) | > 30 µM (inactive) | > 30 µM (inactive) | COc1ccc2c(OCc3nnc4ccc(-c5ccccc5)nn34)ccnc2c1 [AMG-208]
> 30 µM (inactive) | > 30 µM (inactive) | > 30 µM (inactive) | > 30 µM (inactive) | > 30 µM (inactive) | > 30 µM (inactive) | O=C(NC[C@H](O)CO)c1ccncc1Nc1ccc(I)cc1F [PIMASERTIB]
> 30 µM (inactive) | > 30 µM (inactive) | > 30 µM (inactive) | > 30 µM (inactive) | > 30 µM (inactive) | > 30 µM (inactive) | C#Cc1cccc(Nc2ncnc3cc4c(cc23)OCCOCCOCCO4)c1 [ICOTINIB]

Structure (SMILES) | Kd [1] | Kd [2] | Kd [3] | Kd [4] | Kd [5] | Kd [6]
C=CC(=O)Nc1cc(Nc2nccc(-c3cn(C)c4ccccc34)n2)c(OC)cc1N(C)CCN(C)C [OSIMERTINIB] | > 30 µM (inactive) | > 30 µM (inactive) | > 30 µM (inactive) | > 30 µM (inactive) | > 30 µM (inactive) | > 30 µM (inactive)

— ChEMBL document CHEMBL3991601, “The target landscape of clinical kinase drugs” (Science, 2017)
